In PubChem BioAssay AID2060910 (Molecular Pharmacology Branch, DTP, NCI, 2025):
Where “and” joins values, the source holds several entries; their conditions need not be identical. Equal entries are not always repeated.

Test system: 242566-281-R-J2-PDC complex spheroid viability
Experiment: Anticancer human tumor 242566-281-R-J2-PDC patient-derived pancreatic carcinoma cell line growth inhibition [RAS]
Settings: for viability, T/C: stronger effect = lower value
How it was run: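 Multi-cell-type spheroids: tumor cells plus HUVEC endothelial cells and mesenchymal stem cells. RAS-pathway inhibitors were combined with targeted agents, each dosed in half-log steps down from clinical Cmax, or from 10 microM when Cmax was unknown.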
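Also: spheroids exposed to compound for 7 days before readout.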
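For viability, T/C in this document: 100% = DMSO vehicle control wells.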

## CC1(O)CCCC1n1c(=O)c(C(F)F)cc2cnc(NC3CCN(S(C)(=O)=O)CC3)nc21 (stereo not given) + CCn1c(-c2cc(N3CCN(C)CC3)cnc2C(C)OC)c2c3cc(ccc31)-c1csc(n1)CC(NC(=O)C1CC1C)C(=O)N1CCCC(N1)C(=O)OCC(C)(C)C2
Curve of first compound, second compound 0.000949 µM
  IC50: 6350 nM
Curve of first compound, second compound 0.003 µM
  IC50: 4930 nM
Curve of first compound, second compound 0.00949 µM
  IC50: 31.6 nM
Curve of first compound, second compound 0.03 µM
  IC50: < 31.6 nM
Curve of first compound, second compound 0.0949 µM
  IC50: < 31.6 nM
Curve of first compound, second compound 0.3 µM
  IC50: < 31.6 nM
Second compound 0.000949 µM, first compound 0.0316 µM
  viability, T/C: 85.7%
Second compound 0.000949 µM, first compound 0.1 µM
  viability, T/C: 84%
Second compound 0.000949 µM, first compound 0.316 µM
  viability, T/C: 72.8%
Second compound 0.000949 µM, first compound 1 µM
  viability, T/C: 98.9%
Second compound 0.000949 µM, first compound 3.16 µM
  viability, T/C: 98.1%
Second compound 0.000949 µM, first compound 10 µM
  viability, T/C: 25.2%
Second compound 0.003 µM, first compound 0.0316 µM
  viability, T/C: 73%
Second compound 0.003 µM, first compound 0.1 µM
  viability, T/C: 58.6%
Second compound 0.003 µM, first compound 0.316 µM
  viability, T/C: 64.7%
Second compound 0.003 µM, first compound 1 µM
  viability, T/C: 73.3%
Second compound 0.003 µM, first compound 3.16 µM
  viability, T/C: 82.5%
Second compound 0.003 µM, first compound 10 µM
  viability, T/C: 17.2%
Second compound 0.00949 µM, first compound 0.0316 µM
  viability, T/C: 43.7%
Second compound 0.00949 µM, first compound 0.1 µM
  viability, T/C: 42.2%
Second compound 0.00949 µM, first compound 0.316 µM
  viability, T/C: 49.5%
Second compound 0.00949 µM, first compound 1 µM
  viability, T/C: 51.4%
Second compound 0.00949 µM, first compound 3.16 µM
  viability, T/C: 53.2%
Second compound 0.00949 µM, first compound 10 µM
  viability, T/C: 14.7%
Second compound 0.03 µM, first compound 0.0316 µM
  viability, T/C: 25.7%
Second compound 0.03 µM, first compound 0.1 µM
  viability, T/C: 28.7%
Second compound 0.03 µM, first compound 0.316 µM
  viability, T/C: 30.8%
Second compound 0.03 µM, first compound 1 µM
  viability, T/C: 35.6%
Second compound 0.03 µM, first compound 3.16 µM
  viability, T/C: 30.7%
Second compound 0.03 µM, first compound 10 µM
  viability, T/C: 18.1%
Second compound 0.0949 µM, first compound 0.0316 µM
  viability, T/C: 23.1%
Second compound 0.0949 µM, first compound 0.1 µM
  viability, T/C: 23.8%
Second compound 0.0949 µM, first compound 0.316 µM
  viability, T/C: 22%
Second compound 0.0949 µM, first compound 1 µM
  viability, T/C: 28.7%
Second compound 0.0949 µM, first compound 3.16 µM
  viability, T/C: 22.5%
Second compound 0.0949 µM, first compound 10 µM
  viability, T/C: 15.1%
Second compound 0.3 µM, first compound 0.0316 µM
  viability, T/C: 18%
Second compound 0.3 µM, first compound 0.1 µM
  viability, T/C: 18.6%
Second compound 0.3 µM, first compound 0.316 µM
  viability, T/C: 20.5%
Second compound 0.3 µM, first compound 1 µM
  viability, T/C: 23.6%
Second compound 0.3 µM, first compound 3.16 µM
  viability, T/C: 26.8%
Second compound 0.3 µM, first compound 10 µM
  viability, T/C: 14.1%

## NC1c2ccccc2OC12CCN(c1cnc3c(N4CCCc5ncccc54)n[nH]c3n1)CC2 (stereo not given) + C=CC(=O)N1CCN(c2nc(OCC3CCCN3C)nc3c(F)c(-c4nc(N)cc(C)c4C(F)(F)F)c(Cl)cc23)C(C)C1
Curve of first compound, second compound 0.00316 µM
  IC50: > 10000 nM
Curve of first compound, second compound 0.01 µM
  IC50: > 10000 nM
Curve of first compound, second compound 0.0316 µM
  IC50: > 10000 nM
Curve of first compound, second compound 0.1 µM
  IC50: > 10000 nM
Curve of first compound, second compound 0.316 µM
  IC50: > 10000 nM
Curve of first compound, second compound 1 µM
  IC50: > 10000 nM
Second compound 0.00316 µM, first compound 0.0316 µM
  viability, T/C: 104%
Second compound 0.00316 µM, first compound 0.1 µM
  viability, T/C: 128%
Second compound 0.00316 µM, first compound 0.316 µM
  viability, T/C: 83.3%
Second compound 0.00316 µM, first compound 1 µM
  viability, T/C: 82.7%
Second compound 0.00316 µM, first compound 3.16 µM
  viability, T/C: 79.5%
Second compound 0.00316 µM, first compound 10 µM
  viability, T/C: 61.7%
Second compound 0.01 µM, first compound 0.0316 µM
  viability, T/C: 99%
Second compound 0.01 µM, first compound 0.1 µM
  viability, T/C: 122%
Second compound 0.01 µM, first compound 0.316 µM
  viability, T/C: 107%
Second compound 0.01 µM, first compound 1 µM
  viability, T/C: 72.2%
Second compound 0.01 µM, first compound 3.16 µM
  viability, T/C: 98.7%
Second compound 0.01 µM, first compound 10 µM
  viability, T/C: 62.6%
Second compound 0.0316 µM, first compound 0.0316 µM
  viability, T/C: 120%
Second compound 0.0316 µM, first compound 0.1 µM
  viability, T/C: 126%
Second compound 0.0316 µM, first compound 0.316 µM
  viability, T/C: 86.9%
Second compound 0.0316 µM, first compound 1 µM
  viability, T/C: 89.3%
Second compound 0.0316 µM, first compound 3.16 µM
  viability, T/C: 77.1%
Second compound 0.0316 µM, first compound 10 µM
  viability, T/C: 56.2%
Second compound 0.1 µM, first compound 0.0316 µM
  viability, T/C: 124%
Second compound 0.1 µM, first compound 0.1 µM
  viability, T/C: 129%
Second compound 0.1 µM, first compound 0.316 µM
  viability, T/C: 98.8%
Second compound 0.1 µM, first compound 1 µM
  viability, T/C: 67.5%
Second compound 0.1 µM, first compound 3.16 µM
  viability, T/C: 73.3%
Second compound 0.1 µM, first compound 10 µM
  viability, T/C: 54.7%
Second compound 0.316 µM, first compound 0.0316 µM
  viability, T/C: 124%
Second compound 0.316 µM, first compound 0.1 µM
  viability, T/C: 138%
Second compound 0.316 µM, first compound 0.316 µM
  viability, T/C: 87%
Second compound 0.316 µM, first compound 1 µM
  viability, T/C: 84.4%
Second compound 0.316 µM, first compound 3.16 µM
  viability, T/C: 76.2%
Second compound 0.316 µM, first compound 10 µM
  viability, T/C: 56.8%
Second compound 1 µM, first compound 0.0316 µM
  viability, T/C: 122%
Second compound 1 µM, first compound 0.1 µM
  viability, T/C: 119%
Second compound 1 µM, first compound 0.316 µM
  viability, T/C: 76.1%
Second compound 1 µM, first compound 1 µM
  viability, T/C: 87.4%
Second compound 1 µM, first compound 3.16 µM
  viability, T/C: 91%
Second compound 1 µM, first compound 10 µM
  viability, T/C: 60.4%

## CC(C)n1nc(-c2ccc3oc(N)nc3c2)c2c(N)ncnc21
Compound 0.000316 µM
  viability, T/C: 104% [middle of 4 runs]
Compound 0.001 µM
  viability, T/C: 102% [middle of 4 runs]
Compound 0.01 µM
  viability, T/C: 85.6% [middle of 4 runs]
Compound 0.0316 µM
  viability, T/C: 63.6% [middle of 4 runs]
Compound 0.1 µM
  viability, T/C: 60.3% [middle of 4 runs]
Curve of compound
  IC50: 50.9 nM and > 100 nM and 52.5 nM
